Data from article PMC9721423, “Novel benzo chromene derivatives: design, synthesis, molecular docking, cell cycle arrest, and apoptosis induction in human acute myeloid leukemia HL-60 cells” (Journal of Enzyme Inhibition and Medicinal Chemistry, 2022).
Where two headings read alike, the source gives them in different places.

How the values were obtained:
Assay in all cases: cells
Parameters in all cases: species or system NCI-60 human tumour cell lines; NCI-60 five-dose growth inhibition screen, sulforhodamine B protein stain
SK-MEL-5 = conditions: Homo sapiens, SK-MEL-5, 48 h
Description: (§1) All the newly synthesised 28 compounds were selected for single-dose testing. NCI60 single-dose testing is performed in all 60 cell lines according to the reported assay (National Cancer Institute, https://dtp.cancer.gov/) (National Cancer Institute https://dtp.cancer.gov/discovery_development/nci-60/), compounds were dissolved in DMSO: glycerol […] and are stored in a −70 °C freezer. The prepared compounds were added at single concentration of 1 0^−5 M and the culture was incubated for 48 h. End point determinations were made with a protein binding dye, sulforhodamine B (SRB). The human tumour cell lines were derived from nine different cancer types: leukaemia, melanoma, lung, colon, central nervous system (CNS), ovarian, renal, prostate, and breast cancers. Dose–response curves for these compounds were created by plotting the percentage growth (PGs or % growth) against log10 of the corresponding concentration for every cell line. Three response parameters, GI50 (Median Growth Inhibitory Concentration), TGI (Total Growth Inhibitory Concentration), and LC50 (Median Lethal Concentration) were calculated[54] (National Cancer Institute, https://dtp.cancer.gov/discovery_development/nci-60/) (National Cancer Institute, https://dtp.cancer.gov/)[55] for compounds 5a and 6a. […] Furthermore, the average sensitivity of all cell lines towards the compound is termed as the full panel mean graph midpoints (MG-MID). The ratio obtained by dividing the full panel mean graph midpoints (MG-MID) concentration by the individual subpanel MG-MID concentrations (obtained as the average sensitivity of all cell lines of a particular subpanel towards the test compound) is considered a criterion for the compound selectivity towards the corresponding cell line. Ratios greater than 6 indicate high selectivity while ratios between 3 and 6 refer to moderate selectivity whereas compounds not meeting either of these criteria were rated non-selective[56].

SK-MEL-28 = conditions: Homo sapiens, SK-MEL-28, 48 h
Description: as §1

MDA-MB-468 = conditions: Homo sapiens, MDA-MB-468, 48 h
Description: as §1

DU-145 = conditions: Homo sapiens, DU-145, 48 h
Description: as §1

HL-60(TB) = conditions: Homo sapiens, HL-60, 48 h
Description: as §1

SR = conditions: Homo sapiens, SR, 48 h
Description: as §1

SW-620 = conditions: Homo sapiens, SW-620, 48 h
Description: as §1

SNB-19 = conditions: Homo sapiens, SNB-19, 48 h
Description: as §1

HCC-2998 = conditions: Homo sapiens, HCC 2998, 48 h
Description: as §1

SF-295 = conditions: Homo sapiens, SF-295, 48 h
Description: as §1

IGROV1 = conditions: Homo sapiens, IGROV-1, 48 h
Description: as §1

HS 578T = conditions: Homo sapiens, Hs-578T, 48 h
Description: as §1

HCT-116 = conditions: Homo sapiens, HCT-116, 48 h
Description: as §1

MCF7 = conditions: Homo sapiens, MCF7, 48 h
Description: as §1

SN12C = conditions: Homo sapiens, SN12C, 48 h
Description: as §1

NCI-H226 = conditions: Homo sapiens, NCI-H226, 48 h
Description: as §1

MALME-3M = conditions: Homo sapiens, Malme-3M, 48 h
Description: as §1

Structure (SMILES): N=C(NO)C1=C(N)Oc2c(ccc3ccccc23)C1c1ccccc1 (stereo not shown) [5a, 2-Amino-4-phenyl-N-hydroxy-4H-benzo[h]chromene-3-carboxamidine]
- GI50 (SK-MEL-5): 320 nM
- GI50 (SK-MEL-28; read-out: GI50 5a): 11.8 µM
- GI50 (MDA-MB-468; read-out: GI50 5a): 1990 nM
- GI50 (DU-145; read-out: GI50 5a): 460 nM
- GI50 (HL-60(TB); read-out: GI50 5a): 240 nM
- GI50 (SR; read-out: GI50 5a): 100 nM
- GI50 (SW-620; read-out: GI50 5a): 170 nM
- GI50 (SNB-19; read-out: GI50 5a): 490 nM
- GI50 (HCC-2998; read-out: GI50 5a): 370 nM
- GI50 (SF-295; read-out: GI50 5a): 300 nM
- GI50 (IGROV1; read-out: GI50 5a): 330 nM
- GI50 (HS 578T; read-out: GI50 5a): 230 nM
- GI50 (HCT-116; read-out: GI50 5a): 410 nM
- GI50 (MCF7; read-out: GI50 5a): 210 nM
- GI50 (SN12C; read-out: GI50 5a): 530 nM
- GI50 (NCI-H226; read-out: GI50 5a): 8.01 µM
- GI50 (MALME-3M; read-out: GI50 5a): 15.6 µM

Structure (SMILES): CC(=O)NC1=C(C#N)C(c2ccccc2)c2ccc3ccccc3c2O1 (stereo not shown) [6a, N-(3-Cyano-4-phenyl-4H-benzo[h]chromen-2-yl)acetamide]
- GI50 (SK-MEL-5; read-out: GI50 6a): 360 nM
- GI50 (SK-MEL-28; read-out: GI50 6a): 0.86 µM
- GI50 (MDA-MB-468; read-out: GI50 6a): 240 nM
- GI50 (DU-145; read-out: GI50 6a): 730 nM
- GI50 (HL-60(TB); read-out: GI50 6a): 290 nM
- GI50 (SR; read-out: GI50 6a): 470 nM
- GI50 (SW-620; read-out: GI50 6a): 410 nM
- GI50 (SNB-19; read-out: GI50 6a): 780 nM
- GI50 (HCC-2998; read-out: GI50 6a): 1430 nM
- GI50 (SF-295; read-out: GI50 6a): 330 nM
- GI50 (IGROV1; read-out: GI50 6a): 530 nM
- GI50 (HS 578T; read-out: GI50 6a): 360 nM
- GI50 (HCT-116; read-out: GI50 6a): 430 nM
- GI50 (MCF7; read-out: GI50 6a): 470 nM
- GI50 (SN12C; read-out: GI50 6a): 700 nM
- GI50 (NCI-H226; read-out: GI50 6a): 1.85 µM
- GI50 (MALME-3M; read-out: GI50 6a): 0.67 µM
